The test system of one series is PPAR. Briefly: PPAR binding and functional assays at multiple concentrations. As to conditions: all PPAR binding and functional assays.
Series [1] is described as follows: Human hepatocyte clearance. The format is in vitro ADME. As to conditions: hepatocytes.
The target of another series is hRORbeta (Homo sapiens, UniProt Q92753). The experiment in a line: hRORbeta binding.
For the next series, the target named is hERalpha (Homo sapiens, UniProt P03372). The experiment in a line: hERalpha binding.
Sequence of hERalpha (P03372 whole entry): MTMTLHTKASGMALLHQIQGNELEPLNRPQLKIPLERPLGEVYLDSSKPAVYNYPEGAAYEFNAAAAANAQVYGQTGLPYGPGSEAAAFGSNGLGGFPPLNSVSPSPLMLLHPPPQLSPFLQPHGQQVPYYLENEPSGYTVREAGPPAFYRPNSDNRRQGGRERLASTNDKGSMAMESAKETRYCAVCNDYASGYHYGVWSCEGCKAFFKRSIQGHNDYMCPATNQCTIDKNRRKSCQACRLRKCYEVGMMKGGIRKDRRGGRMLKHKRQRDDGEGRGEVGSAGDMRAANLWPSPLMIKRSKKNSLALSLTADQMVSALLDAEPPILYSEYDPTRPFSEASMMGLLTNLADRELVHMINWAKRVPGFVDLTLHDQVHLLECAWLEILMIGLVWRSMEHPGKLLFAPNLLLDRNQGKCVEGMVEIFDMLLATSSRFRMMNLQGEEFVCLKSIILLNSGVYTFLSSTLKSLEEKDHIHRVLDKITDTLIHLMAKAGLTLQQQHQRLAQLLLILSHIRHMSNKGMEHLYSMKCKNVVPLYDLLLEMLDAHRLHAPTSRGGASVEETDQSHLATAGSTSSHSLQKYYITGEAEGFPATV
The next series relates to wild type ICR mice. The experiment in a line: Intraperitoneal glucose tolerance test (IPGTT) in wild type ICR mice. Type of series: in vivo, mouse. As to conditions: various oral doses. On the procedure: Nine to ten week old male ICR mice (Envigo) and GPR40 KO mice (Taconic) were used. The day before an IPGTT (~1600), animals were fasted in clean cages. The following morning (~0800), animals were randomized on fasting glucose and body weight (N = 6 per group). Mice were orally administered a test article or vehicle 60 min prior to an intraperitoneal (IP) injection of glucose (2g/kg). Blood glucose levels were determined by a glucometer from tail bleeds taken at 0, 15, 30, 60, and 120 min after the glucose challenge. An average of two readings were reported at each time point. Also, blood samples were collected into serum tubes at 0, 3, 6, and 15 min post glucose injection for insulin measurement. Serum tubes were centrifuged at 3000g for 5 min and serum transferred into 96-well plates for insulin analysis by a Mesoscale rat/mouse insulin assay.

In the next series the target is GPR40 S123A (Homo sapiens, UniProt O14842, S123A). Briefly: cAMP accumulation assay, S123A mutant. A general note: cAMP levels reflect the balance of adenylyl cyclase and phosphodiesterase activity.
Sequence of GPR40 S123A (O14842 whole entry S123A): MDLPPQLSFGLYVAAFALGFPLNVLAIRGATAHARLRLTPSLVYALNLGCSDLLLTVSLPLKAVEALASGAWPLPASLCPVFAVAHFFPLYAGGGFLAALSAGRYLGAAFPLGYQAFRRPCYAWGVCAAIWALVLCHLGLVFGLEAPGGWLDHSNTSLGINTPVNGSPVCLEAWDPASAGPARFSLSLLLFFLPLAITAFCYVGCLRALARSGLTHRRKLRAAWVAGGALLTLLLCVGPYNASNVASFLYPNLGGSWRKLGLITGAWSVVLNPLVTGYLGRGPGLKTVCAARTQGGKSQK

Where two headings read alike, the source gives them in different places. A value given as a limit tells only on which side of the number the result lay.

Sequence of hRORbeta (Q92753 whole entry): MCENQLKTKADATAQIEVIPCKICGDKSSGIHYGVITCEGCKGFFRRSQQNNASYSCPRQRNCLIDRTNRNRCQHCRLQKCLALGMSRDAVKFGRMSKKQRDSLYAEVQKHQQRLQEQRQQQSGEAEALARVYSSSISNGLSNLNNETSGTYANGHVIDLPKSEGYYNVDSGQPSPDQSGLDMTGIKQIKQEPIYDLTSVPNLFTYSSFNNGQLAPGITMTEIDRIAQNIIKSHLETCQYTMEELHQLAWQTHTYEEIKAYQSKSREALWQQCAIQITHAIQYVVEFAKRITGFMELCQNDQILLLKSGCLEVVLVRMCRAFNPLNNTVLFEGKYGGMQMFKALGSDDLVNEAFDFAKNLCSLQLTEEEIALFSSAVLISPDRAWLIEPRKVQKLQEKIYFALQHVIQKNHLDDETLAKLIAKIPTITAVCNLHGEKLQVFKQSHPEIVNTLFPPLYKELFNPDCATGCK

As for `COc1ccc(C(=O)N(CC(C)(C)C)c2cccc(C)n2)c(N2CCC(c3cc4ccc([C@@H](CC(=O)O)C5CC5)cc4o3)CC2)c1` [compound 1], the “PPAR binding or functional activities” value in the series with PPAR is “lack of significant PPAR binding or functional activities”. Also, the recovery stood at 103% in series [1] (no ABT, read-out: Human Hepatocyte Clearance no ABT % Recovery) and 92.8% in series [1] (with ABT (concentration not stated), read-out: Human Hepatocyte Clearance ABT % Recovery). The hepatocyte CLint in series [1] (no ABT, read-out: Human Hepatocyte Clearance no ABT Intrinsic Clearance) is 8.8 µL/min/1e6 cells; in series [1] (with ABT, read-out: Human Hepatocyte Clearance ABT Intrinsic Clearance), below 1.8 µL/min/1e6 cells. The inhibitory constant (Ki) at hRORbeta is above 13 µM; on hERalpha, above 11 µM. Besides, the “glucose excursion in IPGTT” value with wild type ICR mice is “decreases in glucose excursion”. Also, in the series with wild type ICR mice, the “insulin secretion in IPGTT” value was “Dose-dependent increases in insulin secretion”. On GPR40 S123A, this molecule showed an EC50 above 30 µM.

One may read the Ki as a dissociation constant, usually derived from enzyme kinetics or from competition with a known ligand. For orientation: EC50 means the concentration giving half of the maximal effect. Lower therefore signals a more potent agent.

Source of the values: paper PMC5917010, “Structural basis for GPR40 allosteric agonism and incretin stimulation” (Nature Communications, 2018).
